Test results reported in paper PMC8647151, “PLK1‐dependent phosphorylation restrains EBNA2 activity and lymphomagenesis in EBV‐infected mice” (EMBO Reports, 2021).
Where “and” joins values, the source holds several entries; their conditions need not be identical. Equal values may be shown once. Where a SMILES comes first, the peptide text is derived from it. [ ]: non-standard residue; d: D form. pS = N[C@@H](COP(=O)(O)O)C(=O)O

What was measured:
[1] = biological target: T1, PLK1 PBD (PLK1 residue 345‐603) (Homo sapiens, UniProt P53350); experiment: Isothermal titration calorimetry of EBNA2 heptapeptides with PLK1 PBD; format: binding; conditions: ITC200, 100 µM PBD in the cell titrated with 1 mM peptide, 25°C, triplicates
T1 construct: His6 (N); made in house; host or cells: E. coli Rosetta (DE3)
Procedure: PLK1 frequently binds to phosphorylated substrates that are primed by cellular kinases like Cyclin B/CDK1. These substrates share a consensus motif [Pro/Phe]‐[Φ/Pro]‐[Φ]‐[Thr/Gln/His/Met]‐Ser‐[pThr/pSer]‐[Pro/X] (Φ represents hydrophobic and X represents any residue) specific for binding to the Polo‐box binding domain (PBD) of PLK1 (Elia et al, [2003a]). […] Mutants involving the respective residues were tested for PLK1 binding by transfection and co‐precipitation. […] To specify the contribution of EBNA2 residue S379 phosphorylation, a heptapeptide (PNTSSPS) and phospho‐heptapeptide (PNTSpSPS) were tested for PBD (PLK1 residue 345‐603) binding by isothermal titration calorimetry (ITC). […] GST‐EBNA2 342–422 expressed and purified from bacterial extracts did hardly pulldown any PLK1 from cellular extracts. […] Also, as shown by transfection, EBNA2 S379A binding to PLK1 was severely impaired (Fig 2H). We conclude that EBNA2 residue S379 is a PLK1 docking site primed by Cyclin B/CDK1 phosphorylation.
Experiments were performed on a ITC200 instrument in triplicates and analyzed with the Malvern software. 100 µM PBD was provided in the cell and titrated with 1 mM concentration of wild type (PNTSSPS) or phosphopeptide (PNTSpSPS) with 25 times 1.5 µl injections at 25°C.

PLK1 = experiment: Kinase assay on EBNA2/PLK1 co-precipitates with endogenous PLK1; format: biochemical; conditions: Volasertib 40 nM, [γ-32P] ATP
Procedure: Monoclonal antibodies specific for His6 (2F12), EBNA2 (R3), glutathione S transferase (6G9), HA‐tag (3F10), BSA (3C5), and LMP1 (1G6) were provided by the antibody facility of the Helmholtz Center Munich. Commercial providers were as follows: GAPDH (Mab374; Merck Millipore), Flag (M2; Sigma‐Aldrich), PLK1 (ab17056; Abcam), GFP (7.1 and 13.1; Roche), and a p300‐specific serum (C20; Santa Cruz). For immunoprecipitations and Western blotting, the equivalent of 1 × 10^7 cells was lysed in 500 µl of lysis buffer (1% NP‐40, 10 mM Tris–HCl pH 7.4, 3% glycerol, 150 mM NaCl, 1 mM EDTA) supplemented with cOmplete protease inhibitor and PhoStop phosphatase inhibitor (Roche) incubated for 30 min at 4°C with constant rolling and for 30 min on ice. The lysate was cleared by centrifugation (16,000 g, 15 min). 1 µg of purified antibodies or 100 µl of hybridoma supernatants was coupled to Protein A or G beads and added to the cleared lysates, incubated for 2 h at 4°C, and washed with lysis buffer, and the protein was eluted with Laemmeli buffer. For GST‐pulldown, antibody‐coated beads were replaced by GST fusion protein‐coated beads. 20 µg protein of total cell lysates or 5 × 10^6 cell equivalents of one immunoprecipitation were loaded per lane. Signals on Western blots were detected by enhanced chemiluminescence (GE Healthcare) and exposed to films or Fusion FX (Vilber Lourmat). […]

[2] = biological target: polo-like kinase 1 (PLK1) (UniProt P53350); experiment: GST pull-down from cell extract; conditions: reference: wild type, Cyclin B/CDK1 treated; sites S379
[3] = biological target: PLK1 polo-box domain (PBD), PLK1 residue 345-603 (UniProt P53350); experiment: ITC; ITC200; 100 µM PBD in the cell titrated with 1 mM peptide, 25 injections of 1.5 µl, 25°C, triplicates
[4] = biological target: GST-EBNA2 446-474 double-mutant S457A/T465V (Epstein-Barr virus (B95-8)) (UniProt P12978); experiment: pull-down; GST-EBNA2 446-474 (wt or phosphorylation mutants) on beads as bait; cellular proteins from DG75 cells; Western blot with GST- and p300-specific antibodies, signals quantified and normalized to wt

C[C@@H](O)[C@H](NC(=O)[C@H](CC(N)=O)NC(=O)[C@@H]1CCCN1)C(=O)N[C@@H](CO)C(=O)N[C@@H](COP(=O)(O)O)C(=O)N1CCC[C@H]1C(=O)N[C@@H](CO)C(=O)O [PNTSpSPS] (H-PNTS[pS]PS-OH)
Kd ([1]; 25 x 1.5 µl injections, read-out: dissociation constant KD): 8.19 µM

CC[C@@H]1C(=O)N(C)c2cnc(Nc3ccc(C(=O)N[C@H]4CC[C@H](N5CCN(CC6CC6)CC5)CC4)cc3OC)nc2N1C(C)C [Volasertib]
phosphorylation of EBNA2 wt and candidate phosphorylation mutants in immunoprecipitates (PLK1; EBNA2 mutants expressed in DG75 B cells, endogenous PLK1 trapped in precipitates): prevented phosphorylation of all EBNA2 proteins
EBNA2 phosphorylation in co-precipitates of EBNA2 and endogenous PLK1 (PLK1; co-precipitates from DG75 Dox HA-EBNA2 cells, 30 min, 37°C): prevented

EBNA2 (EBV nuclear antigen 2) 342-422 (from UniProt P12978) S379A, Cyclin B/CDK1 treated
binding against the reference [2]: lost

EBNA2 phospho-heptapeptide PNTSpSPS
stoichiometry N [3]: 1

PNTSSPS [unmodified heptapeptide of EBNA2 covering residue S379]
PBD binding by ITC [1]: no interaction was detected

histone acetylase and co-activator p300, endogenous, Q09472 1-2414
fold p300 binding relative to wt [4]: 8 fold and 9 fold
